{"source": "paper PMC9370560", "about": "“5-Demethoxy-10′-ethoxyexotimarin F, a New Coumarin with MAO-B Inhibitory Potential from Murraya exotica L” (Molecules, 2022)", "key": {"MAO-B [1]": {"target": "T1, MAO-B (Homo sapiens, UniProt P27338)", "T1 sequence (P27338 1-520)": "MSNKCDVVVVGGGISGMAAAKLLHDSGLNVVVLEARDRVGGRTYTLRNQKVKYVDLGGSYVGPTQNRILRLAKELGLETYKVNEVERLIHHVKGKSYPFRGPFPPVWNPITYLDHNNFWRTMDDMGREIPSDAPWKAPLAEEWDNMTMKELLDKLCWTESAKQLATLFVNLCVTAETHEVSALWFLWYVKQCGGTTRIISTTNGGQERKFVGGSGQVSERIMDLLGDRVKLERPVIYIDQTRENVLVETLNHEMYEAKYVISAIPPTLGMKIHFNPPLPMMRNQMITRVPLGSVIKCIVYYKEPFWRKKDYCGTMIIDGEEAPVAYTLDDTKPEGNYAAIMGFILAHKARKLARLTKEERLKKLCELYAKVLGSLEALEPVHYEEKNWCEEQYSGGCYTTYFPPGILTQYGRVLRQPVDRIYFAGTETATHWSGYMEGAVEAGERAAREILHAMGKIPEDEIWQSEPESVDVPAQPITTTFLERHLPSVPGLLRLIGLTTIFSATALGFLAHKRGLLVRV", "settings": "previous studies of the authors; read-out: IC50 against MAO-B; cited from earlier work"}, "[2]": {"system": "Salmonella enterica (ATCC14028)", "assay": "Antimicrobial assay (broth dilution and Oxford cup method)", "format": "cell-based, Salmonella enterica subsp. enterica", "settings": "100 μM", "from_the_text": "(§1) The broth dilution method and Oxford cup method were used to detect antimicrobial activity against reference strains, including Salmonella enterica subsp. enterica (ATCC14028), Staphylococcus aureus subsp. aureus (ATCC29213), Escherichia coli (ATCC25922), Pseudomonas aeruginosa (ATCC27853), and Candida albicans (ATCC10231). Ceftazidime and penicillin G sodium and amphotericin B served as an antibacterial and antifungal positive control, respectively."}, "MAO-B [3]": {"target": "T1, MAO-B", "assay": "biochemical"}, "[4]": {"system": "Staphylococcus aureus (ATCC29213)", "assay": "Antimicrobial assay (broth dilution and Oxford cup method)", "format": "cell-based, Staphylococcus aureus subsp. aureus", "settings": "100 μM", "from_the_text": "as §1"}, "[5]": {"system": "T2, butyrylcholinesterase (BuChE)", "T2 construct": "acetylcholinesterase and butyrylcholinesterase derived from human erythrocytes; purchased Sigma Chemical (St. Louis, MO, USA); host or cells: human erythrocytes (so in the source)", "assay": "Butyrylcholinesterase inhibitory activity (Ellman's method)", "format": "biochemical, human", "settings": "50 μM", "description": "(§2) S-Acetylthiocholine iodide, S-butyrylthiocholineiodide, 5,5′-dithio-bis-(2-nitrobenzoic) acid (DTNB, Ellman’s reagent), acetylcholinesterase and butyrylcholinesterase derived from human erythrocytes were purchased from Sigma Chemical (St. Louis, MO, USA). The compounds were dissolved in DMSO. The reaction mixture (totally 200 μL) containing phosphate buffer (pH 8.0), test compound (50 μM), and acetyl cholinesterase (0.02 U/mL) or butyrylcholinesterase (0.016 U/mL), was incubated for 20 min (37 °C). […] All of the reactions were performed in triplicate. The percentage inhibition was calculated as follows: % inhibition = (E − S)/E × 100 (E is the activity of the enzyme without test compound, and S is the activity of the enzyme with test compound)."}, "[6]": {"system": "Candida albicans (ATCC10231)", "assay": "Antimicrobial assay (broth dilution and Oxford cup method)", "format": "cell-based", "settings": "100 μM", "from_the_text": "as §1"}, "[7]": {"system": "Escherichia coli (ATCC25922)", "assay": "Antimicrobial assay (broth dilution and Oxford cup method)", "format": "cell-based", "settings": "100 μM", "from_the_text": "as §1"}, "[8]": {"system": "Pseudomonas aeruginosa (ATCC27853)", "assay": "Antimicrobial assay (broth dilution and Oxford cup method)", "format": "cell-based", "settings": "100 μM", "from_the_text": "as §1"}, "α-glucosidase": {"system": "α-glucosidase", "assay": "α-Glucosidase inhibition assay (4-NPGP)", "format": "biochemical", "description": "An enzyme inhibitor screening model was chosen using 4-nitro-phenol-α-D-glucopyranoside (4-NPGP) and slightly modified. Briefly, the test compound (50 μM), α-glucosidase solution (0.025 U/mL), phosphate buffer (pH 6.9), and (4-NPGP) (1 μM) were incubated in 96-well plates at 37 °C for 50 min. […] Quercetin was selected as the positive control. All of the reactions were repeated three times."}, "[9]": {"system": "LPS-induced NO production in RAW264.7 cells", "assay": "Anti-inflammatory assay: inhibition of LPS-induced NO production", "format": "cell-based"}, "MAO-A": {"target": "T3, MAO-A (Homo sapiens, UniProt P21397)", "T3 sequence (P21397 1-527)": "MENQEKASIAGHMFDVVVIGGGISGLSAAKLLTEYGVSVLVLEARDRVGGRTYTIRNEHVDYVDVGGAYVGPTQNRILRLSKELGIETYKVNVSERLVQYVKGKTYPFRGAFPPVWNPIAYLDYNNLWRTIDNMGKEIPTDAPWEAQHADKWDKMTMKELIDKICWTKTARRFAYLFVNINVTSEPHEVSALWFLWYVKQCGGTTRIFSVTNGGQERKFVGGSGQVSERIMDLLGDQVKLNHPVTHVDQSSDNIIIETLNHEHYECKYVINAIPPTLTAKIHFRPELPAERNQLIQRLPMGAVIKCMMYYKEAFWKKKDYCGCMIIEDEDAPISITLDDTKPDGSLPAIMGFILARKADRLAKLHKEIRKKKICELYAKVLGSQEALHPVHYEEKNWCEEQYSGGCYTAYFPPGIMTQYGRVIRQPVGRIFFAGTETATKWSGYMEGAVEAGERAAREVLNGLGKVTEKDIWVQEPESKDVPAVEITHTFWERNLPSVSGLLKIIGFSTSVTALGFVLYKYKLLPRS", "assay": "biochemical", "settings": "mean ± S.E.M. from three experiments"}, "[10]": {"system": "acetylcholinesterase (AChE)", "settings": "50 μM", "description": "as §2"}}, "note": "Where two headings read alike, the source gives them in different places.", "data": [{"smiles": "COc1c(OC/C=C(\\C)C[C@@H]2C=C(CCC(N)=O)C(=O)O2)ccc2ccc(=O)oc12", "note": "[anisucoumaramide]", "values": [{"measurement": "IC50", "setting": "MAO-B [1]", "value": "143.7 ± 0.9", "unit": "nM"}]}, {"smiles": "C=C(C)[C@H](O)[C@@H](OCC)c1c(OC)ccc(/C=C/C(=O)O[C@H](Cc2c(OC)ccc3ccc(=O)oc23)C(C)(C)O)c1O", "note": "[Compound 1, (E)-(R)-3-hydroxy-1-(7-methoxy-2-oxo-2H-chromen-8-yl)-3-methylbutan-2-yl·3-(3-((1S, 2S)-1-ethoxy-2-hydroxy-3-methylbut-3-en-1-yl)-2-hydroxy-4-methoxyphenyl)acrylate]", "values": [{"measurement": "inhibitory effect against Salmonella enterica (ATCC14028)", "setting": "[2]", "value": "did not lead to a significant inhibitory effect"}, {"measurement": "SI: MAO-B selectivity index = IC50 (MAO-A)/IC50 (MAO-B)", "setting": "MAO-B [3]", "value": 172}, {"measurement": "IC50", "setting": "MAO-B [3]; mean ± S.E.M. from three experiments", "value": "153 ± 1.58", "unit": "nM"}, {"measurement": "inhibitory effect against Staphylococcus aureus (ATCC29213)", "setting": "[4]", "value": "did not lead to a significant inhibitory effect"}, {"measurement": "BuChE inhibitory activity", "setting": "[5]", "value": "did not show any inhibitory activity"}, {"measurement": "inhibitory effect against Candida albicans (ATCC10231)", "setting": "[6]", "value": "did not lead to a significant inhibitory effect"}, {"measurement": "inhibitory effect against Escherichia coli (ATCC25922)", "setting": "[7]", "value": "did not lead to a significant inhibitory effect"}, {"measurement": "inhibitory effect against Pseudomonas aeruginosa (ATCC27853)", "setting": "[8]", "value": "did not lead to a significant inhibitory effect"}, {"measurement": "α-glucosidase percentage of inhibition", "setting": "α-glucosidase; 50 μM", "value": "less than 50%"}, {"measurement": "inhibition against LPS-induced NO production", "setting": "[9]", "value": 34.59, "unit": "%"}, {"measurement": "IC50", "setting": "MAO-A", "value": "26300 ± 1030", "unit": "nM"}, {"measurement": "AChE inhibitory activity", "setting": "[10]", "value": "did not show any inhibitory activity"}]}, {"smiles": "[H]/N=C(/NC)NCCC[C@H](N)C(=O)O", "note": "[L-NMMA, NG-monomethyl-L-arginine, reference compound]", "values": [{"measurement": "inhibition against LPS-induced NO production", "setting": "[9]", "value": 56.13, "unit": "%"}]}, {"smiles": "O=c1c(O)c(-c2ccc(O)c(O)c2)oc2cc(O)cc(O)c12", "note": "[quercetin, reference compound]", "values": [{"measurement": "α-glucosidase inhibition (positive control)", "setting": "α-glucosidase; concentration not given", "value": 53.17, "unit": "%"}]}]}
